Measurements reported in ChEMBL document CHEMBL1201862, “PubChem BioAssay data set” (2004).
One block for each molecule: values may come before it. The source made the active and inactive calls.

What was measured:
[1] = biological target: DNA dC->dU-editing enzyme APOBEC-3G (Homo sapiens, UniProt Q9HC16); experiment: Dose Response confirmation of small molecule APOBEC3G DNA Deaminase Inhibitors via a fluorescence-based single-stranded DNA deaminase assay. [Related pubchem assays (depositor defined):AID493012, AID493028]; assay type: functional
Sequence of DNA dC->dU-editing enzyme APOBEC-3G (Q9HC16 whole entry): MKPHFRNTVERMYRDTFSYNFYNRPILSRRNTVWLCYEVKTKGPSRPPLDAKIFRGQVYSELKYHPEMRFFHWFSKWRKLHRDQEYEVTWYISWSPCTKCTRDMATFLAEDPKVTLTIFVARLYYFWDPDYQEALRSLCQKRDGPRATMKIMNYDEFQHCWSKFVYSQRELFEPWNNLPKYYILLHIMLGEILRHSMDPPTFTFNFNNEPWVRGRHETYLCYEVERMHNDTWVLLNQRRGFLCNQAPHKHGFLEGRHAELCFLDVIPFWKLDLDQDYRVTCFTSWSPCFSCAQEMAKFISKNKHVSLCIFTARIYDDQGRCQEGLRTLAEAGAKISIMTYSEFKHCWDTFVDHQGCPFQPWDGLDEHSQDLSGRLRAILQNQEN

[2] = biological target: T1, Mannose-6-phosphate isomerase (Homo sapiens, UniProt P34949); experiment: MPI inhibition at elevated mannose 6-phosphate – biochemical, fluorescence intensity, high mannose 6-phosphate, primary screen (AID 1220)
T1 sequence (P34949 whole entry): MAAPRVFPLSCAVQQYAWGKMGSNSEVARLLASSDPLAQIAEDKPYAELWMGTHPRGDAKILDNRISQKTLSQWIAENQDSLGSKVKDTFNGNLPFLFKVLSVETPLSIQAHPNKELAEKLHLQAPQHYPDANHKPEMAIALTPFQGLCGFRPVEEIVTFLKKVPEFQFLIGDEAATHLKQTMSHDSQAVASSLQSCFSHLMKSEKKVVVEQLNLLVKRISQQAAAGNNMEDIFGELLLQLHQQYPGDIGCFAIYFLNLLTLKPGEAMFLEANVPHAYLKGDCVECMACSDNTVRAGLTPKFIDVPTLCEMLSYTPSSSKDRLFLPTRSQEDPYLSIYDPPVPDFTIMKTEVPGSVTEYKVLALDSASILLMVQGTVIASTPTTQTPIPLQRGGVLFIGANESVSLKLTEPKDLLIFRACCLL

[3] = biological target: T2, Lysine-specific demethylase 4C (Homo sapiens, UniProt Q9H3R0); experiment: inhibition of JMJD2C H3K9me3 demethylation – biochemical, DELFIA europium, cherry-picked samples, dose response (AID 488835); assay type: functional
T2 sequence (Q9H3R0 whole entry): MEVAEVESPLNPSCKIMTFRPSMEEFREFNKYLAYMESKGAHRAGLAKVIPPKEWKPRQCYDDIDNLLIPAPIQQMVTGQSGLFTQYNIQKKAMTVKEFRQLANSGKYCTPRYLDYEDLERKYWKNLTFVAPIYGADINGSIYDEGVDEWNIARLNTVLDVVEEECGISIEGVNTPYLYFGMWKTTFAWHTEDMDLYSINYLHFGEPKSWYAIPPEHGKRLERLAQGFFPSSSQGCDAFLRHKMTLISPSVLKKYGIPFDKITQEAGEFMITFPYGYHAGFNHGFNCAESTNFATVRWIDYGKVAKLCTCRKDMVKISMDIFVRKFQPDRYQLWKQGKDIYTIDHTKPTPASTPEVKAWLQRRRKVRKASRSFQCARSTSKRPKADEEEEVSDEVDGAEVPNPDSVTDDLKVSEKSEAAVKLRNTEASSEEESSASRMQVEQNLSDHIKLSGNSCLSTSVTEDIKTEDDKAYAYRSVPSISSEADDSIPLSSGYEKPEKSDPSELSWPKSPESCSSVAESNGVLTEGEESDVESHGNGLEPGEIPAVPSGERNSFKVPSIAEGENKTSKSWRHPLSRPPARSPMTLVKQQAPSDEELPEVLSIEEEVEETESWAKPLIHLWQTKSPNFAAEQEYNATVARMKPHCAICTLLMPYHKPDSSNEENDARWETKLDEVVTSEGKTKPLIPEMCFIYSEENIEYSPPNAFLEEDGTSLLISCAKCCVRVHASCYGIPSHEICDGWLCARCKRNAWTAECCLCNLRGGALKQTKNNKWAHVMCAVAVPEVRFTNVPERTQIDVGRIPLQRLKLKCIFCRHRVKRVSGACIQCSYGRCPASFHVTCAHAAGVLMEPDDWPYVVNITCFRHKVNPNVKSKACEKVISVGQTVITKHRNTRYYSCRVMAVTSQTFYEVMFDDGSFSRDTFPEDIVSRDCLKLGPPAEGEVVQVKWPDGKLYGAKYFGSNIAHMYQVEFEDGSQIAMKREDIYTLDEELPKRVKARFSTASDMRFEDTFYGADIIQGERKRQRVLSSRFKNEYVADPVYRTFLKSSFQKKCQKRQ

[4] = biological target: Eukaryotic translation initiation factor 4E (Mus musculus, UniProt P63073); experiment: blockers of eIF4G binding by eIF4E – biochemical, TR-FRET, dose response (AID 855); assay type: functional;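 also: potency for disrupting eIF4E binding to eIF4GI seen as loss of FRET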
Sequence of Eukaryotic translation initiation factor 4E (P63073 whole entry): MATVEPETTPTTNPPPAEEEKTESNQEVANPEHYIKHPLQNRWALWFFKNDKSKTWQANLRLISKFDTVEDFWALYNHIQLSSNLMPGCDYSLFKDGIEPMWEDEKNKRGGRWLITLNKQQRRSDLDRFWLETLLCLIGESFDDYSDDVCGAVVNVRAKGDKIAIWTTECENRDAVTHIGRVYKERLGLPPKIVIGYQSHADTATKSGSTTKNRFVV

[5] = biological target: T1, Mannose-6-phosphate isomerase; experiment: MPI enzyme activity inhibition – biochemical, fluorescence intensity, coupled assay, primary screen (AID 1209)
Procathepsin L = Procathepsin L (Homo sapiens, UniProt P07711); experiment: CTSL1 protease inhibition – biochemical, QFRET, 1536-well, counter-screen for M1/M17 aminopeptidase inhibitor project, dose response (AID 2214)
Sequence of Procathepsin L (P07711 whole entry): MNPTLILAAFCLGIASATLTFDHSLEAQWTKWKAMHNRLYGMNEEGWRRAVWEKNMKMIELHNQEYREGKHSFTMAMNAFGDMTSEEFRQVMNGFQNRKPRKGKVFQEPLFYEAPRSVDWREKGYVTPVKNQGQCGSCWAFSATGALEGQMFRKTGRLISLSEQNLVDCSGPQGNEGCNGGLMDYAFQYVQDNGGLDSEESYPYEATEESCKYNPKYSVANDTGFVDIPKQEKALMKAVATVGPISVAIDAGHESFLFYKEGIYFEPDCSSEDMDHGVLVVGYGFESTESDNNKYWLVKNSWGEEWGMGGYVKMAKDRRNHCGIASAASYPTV

Aspartyl aminopeptidase = Aspartyl aminopeptidase (Plasmodium falciparum 3D7, UniProt Q8I2J3); experiment: Counterscreen for inhibitors of M1 and M17 aminopeptidases: QFRET-based biochemical high throughput dose response assay for inhibitors of the Plasmodium falciparum M18 Aspartyl Aminopeptidase (PFM18AAP). [Related PubChem assays: 1619 (Screening assay (M17LAP inhibitors).), 1445 (Screening assay (M1AAP inhibitors).)]
Sequence of Aspartyl aminopeptidase (Q8I2J3 whole entry): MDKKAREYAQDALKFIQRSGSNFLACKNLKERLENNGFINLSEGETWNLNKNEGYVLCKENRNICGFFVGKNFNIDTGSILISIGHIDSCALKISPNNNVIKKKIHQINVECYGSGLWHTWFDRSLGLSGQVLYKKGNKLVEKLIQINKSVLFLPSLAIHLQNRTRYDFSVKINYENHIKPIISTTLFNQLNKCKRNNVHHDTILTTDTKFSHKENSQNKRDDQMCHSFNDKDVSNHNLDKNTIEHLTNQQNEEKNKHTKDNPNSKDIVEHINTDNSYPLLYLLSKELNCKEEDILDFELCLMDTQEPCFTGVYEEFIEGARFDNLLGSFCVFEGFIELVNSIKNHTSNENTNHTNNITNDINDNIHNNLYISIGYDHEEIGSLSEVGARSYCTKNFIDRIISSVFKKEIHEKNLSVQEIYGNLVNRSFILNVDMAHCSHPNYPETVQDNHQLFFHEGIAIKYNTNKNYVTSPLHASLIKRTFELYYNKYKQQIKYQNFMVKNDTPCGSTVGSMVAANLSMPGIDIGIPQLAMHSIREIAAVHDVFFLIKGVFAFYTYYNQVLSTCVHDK

Leucine aminopeptidase = biological target: T3, Leucine aminopeptidase (Plasmodium falciparum 3D7, UniProt Q8IL11); experiment: P. falciparum M17LAP inhibitors, primary screen, biochemical, fluorogenic H-Leu-NHMec substrate, 1536-well (AID 1619); assay type: functional
T3 sequence (Q8IL11 whole entry): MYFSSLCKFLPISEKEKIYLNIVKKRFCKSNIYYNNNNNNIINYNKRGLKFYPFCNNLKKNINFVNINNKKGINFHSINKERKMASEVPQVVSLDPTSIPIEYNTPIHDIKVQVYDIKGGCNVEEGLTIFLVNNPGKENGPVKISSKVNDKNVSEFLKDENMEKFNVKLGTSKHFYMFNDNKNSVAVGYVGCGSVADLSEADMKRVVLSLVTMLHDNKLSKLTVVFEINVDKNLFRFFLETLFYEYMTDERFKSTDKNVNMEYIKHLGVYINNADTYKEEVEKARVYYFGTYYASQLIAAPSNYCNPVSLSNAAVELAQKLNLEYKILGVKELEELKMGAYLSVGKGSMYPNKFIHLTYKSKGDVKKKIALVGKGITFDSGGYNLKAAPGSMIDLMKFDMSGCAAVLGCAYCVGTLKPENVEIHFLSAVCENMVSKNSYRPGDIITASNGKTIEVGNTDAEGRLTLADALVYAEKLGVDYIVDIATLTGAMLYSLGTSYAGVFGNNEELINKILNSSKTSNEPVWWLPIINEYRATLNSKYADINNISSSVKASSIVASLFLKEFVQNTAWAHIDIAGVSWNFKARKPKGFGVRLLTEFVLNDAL

[6] = biological target: Epstein-Barr nuclear antigen 1 (Epstein-Barr virus (strain B95-8) (HHV-4) (Human herpesvirus 4), UniProt P03211); experiment: inhibition of EBV nuclear antigen 1 DNA binding – biochemical, fluorescence polarization, 1536-well, dose response (AID 2381); design: species or system human gammaherpesvirus 4;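 also: fluorescence polarization of a Cy5 DNA probe bound by EBNA-1 protein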
Sequence of Epstein-Barr nuclear antigen 1 (P03211 whole entry): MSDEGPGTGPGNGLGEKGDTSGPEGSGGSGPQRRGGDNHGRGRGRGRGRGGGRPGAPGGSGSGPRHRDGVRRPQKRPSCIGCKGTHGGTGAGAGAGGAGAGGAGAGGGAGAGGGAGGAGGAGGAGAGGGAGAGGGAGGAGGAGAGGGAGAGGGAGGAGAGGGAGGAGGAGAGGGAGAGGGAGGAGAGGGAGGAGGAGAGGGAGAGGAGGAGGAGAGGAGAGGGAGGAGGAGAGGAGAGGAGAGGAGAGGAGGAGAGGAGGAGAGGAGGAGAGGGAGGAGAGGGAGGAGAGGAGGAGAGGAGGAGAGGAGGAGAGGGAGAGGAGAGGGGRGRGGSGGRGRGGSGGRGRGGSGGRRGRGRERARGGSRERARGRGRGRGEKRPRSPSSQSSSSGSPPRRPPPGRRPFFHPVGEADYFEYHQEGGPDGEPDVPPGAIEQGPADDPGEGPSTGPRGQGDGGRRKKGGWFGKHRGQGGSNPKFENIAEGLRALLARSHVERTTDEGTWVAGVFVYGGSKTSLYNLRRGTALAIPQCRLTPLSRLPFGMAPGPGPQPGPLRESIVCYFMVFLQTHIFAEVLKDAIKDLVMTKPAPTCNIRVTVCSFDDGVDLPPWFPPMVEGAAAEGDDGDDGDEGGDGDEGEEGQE

[7] = biological target: Lytic switch protein BZLF1 (Epstein-Barr virus (strain B95-8) (HHV-4) (Human herpesvirus 4), UniProt P03206); experiment: inhibition of BZLF1 ZTA DNA binding – biochemical, fluorescence polarization, Epstein-Barr virus, 1536-well, counter-screen for EBNA-1 inhibitor project, dose response (AID 2377); design: species or system human gammaherpesvirus 4;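 also: fluorescence polarization of Cy5-labelled ZRE DNA probe bound by purified Zta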
Sequence of Lytic switch protein BZLF1 (P03206 whole entry): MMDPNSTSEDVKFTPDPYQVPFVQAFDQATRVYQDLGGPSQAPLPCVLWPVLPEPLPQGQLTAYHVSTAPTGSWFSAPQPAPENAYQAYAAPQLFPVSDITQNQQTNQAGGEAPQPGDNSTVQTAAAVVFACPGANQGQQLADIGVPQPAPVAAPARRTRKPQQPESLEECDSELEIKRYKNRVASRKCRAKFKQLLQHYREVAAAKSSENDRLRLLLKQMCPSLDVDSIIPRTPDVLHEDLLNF

SMILES: COc1ccc(/N=c2\ssnc2Cl)cc1
- IC50 [1]: 9.96 µM (active)
- IC50 [2]: 21.6 µM (active)
- AC50 [3]: 39.1 µM (active)
- IC50 [4]: 43.2 µM (inactive)
- IC50 [5]: 14.4 µM (active)

- IC50 (Procathepsin L): > 59.6 µM (not active)
- IC50 (Aspartyl aminopeptidase): > 73.5 µM (not active)
- IC50 (Leucine aminopeptidase): 1.57 µM (active)
SMILES: COc1cc(NC(=O)CSc2nc3ccccc3cc2C)c(C(=O)O)cc1OC

- IC50 [6]: 12 µM (not active)
- IC50 [7]: > 111 µM (not active)
SMILES: O=C(CSc1nc2ccc(NC(=O)CSc3nnnn3-c3ccccc3)cc2s1)Nc1ccccc1
